Assay results published in ChEMBL document CHEMBL4837198, “Design, synthesis and biological evaluation of 1H-indazole derivatives as novel ASK1 inhibitors” (Eur J Med Chem, 2021).
Active and inactive are the calls of the source. The rule behind the calls is not given here.

target: T1, Mitogen-activated protein kinase kinase kinase 5 (Homo sapiens, UniProt Q99683); experiment: Inhibition of human full length recombinant ASK1 using STK-Substrate-3 biotin as substrate in presence of ATP measured after 2 hrs by […] kinase assay; conditions: not given
T1 sequence (Q99683 whole entry): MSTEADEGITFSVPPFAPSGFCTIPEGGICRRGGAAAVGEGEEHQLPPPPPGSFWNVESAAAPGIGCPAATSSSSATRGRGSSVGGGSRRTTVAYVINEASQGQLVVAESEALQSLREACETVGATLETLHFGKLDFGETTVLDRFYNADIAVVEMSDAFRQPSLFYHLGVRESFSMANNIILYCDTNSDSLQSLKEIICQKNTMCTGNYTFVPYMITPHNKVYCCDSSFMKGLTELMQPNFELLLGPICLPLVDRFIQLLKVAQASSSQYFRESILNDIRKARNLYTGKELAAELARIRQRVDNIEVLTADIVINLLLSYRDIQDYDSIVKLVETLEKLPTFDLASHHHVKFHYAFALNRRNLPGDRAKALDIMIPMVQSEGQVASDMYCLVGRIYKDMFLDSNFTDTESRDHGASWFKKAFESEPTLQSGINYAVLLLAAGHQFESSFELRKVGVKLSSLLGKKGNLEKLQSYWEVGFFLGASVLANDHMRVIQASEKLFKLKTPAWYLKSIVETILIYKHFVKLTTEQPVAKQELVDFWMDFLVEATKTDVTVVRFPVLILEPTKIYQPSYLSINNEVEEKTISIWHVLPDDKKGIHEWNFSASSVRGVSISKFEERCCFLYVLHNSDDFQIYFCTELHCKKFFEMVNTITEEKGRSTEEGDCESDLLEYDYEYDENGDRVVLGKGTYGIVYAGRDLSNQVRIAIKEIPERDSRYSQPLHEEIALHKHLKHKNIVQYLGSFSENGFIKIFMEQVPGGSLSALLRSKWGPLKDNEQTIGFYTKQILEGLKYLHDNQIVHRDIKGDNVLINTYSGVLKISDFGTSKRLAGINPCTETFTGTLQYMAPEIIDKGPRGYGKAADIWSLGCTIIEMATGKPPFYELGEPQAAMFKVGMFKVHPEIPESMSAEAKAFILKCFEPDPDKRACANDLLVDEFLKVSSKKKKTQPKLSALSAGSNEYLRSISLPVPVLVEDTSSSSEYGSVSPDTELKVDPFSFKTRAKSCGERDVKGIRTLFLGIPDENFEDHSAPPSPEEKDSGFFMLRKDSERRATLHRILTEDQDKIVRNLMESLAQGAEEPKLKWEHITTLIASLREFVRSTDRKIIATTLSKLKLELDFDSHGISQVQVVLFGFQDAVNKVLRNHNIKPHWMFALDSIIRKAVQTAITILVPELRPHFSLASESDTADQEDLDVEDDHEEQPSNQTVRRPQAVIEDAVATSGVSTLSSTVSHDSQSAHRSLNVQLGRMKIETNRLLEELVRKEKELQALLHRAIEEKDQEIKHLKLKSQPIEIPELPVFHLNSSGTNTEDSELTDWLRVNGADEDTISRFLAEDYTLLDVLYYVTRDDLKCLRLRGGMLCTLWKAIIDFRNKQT

| Compound | IC50 |
| --- | --- |
| COc1ccc(-n2cnc(C3CC3)c2)cc1-c1n[nH]c2ccc(-c3nncn3C(C)C)cc12 | 270 nM |
| CC(C)n1cnnc1-c1ccc2[nH]nc(-c3cccc(-n4cnc(C5CC5)n4)c3)c2c1 | 37 nM |
| c1cc(-c2n[nH]c3ccc(-c4nncn4C4CCCC4)cc23)cc(-n2cnc(C3CC3)c2)c1 | 54.1 nM |
| O=C(Nc1cccc(-c2n[nH]c3ccc(-c4nnc[nH]4)cc23)c1)c1ccc(C(F)(F)F)cc1 | 532 nM |
| CC(C)n1cnnc1-c1ccc2[nH]nc(-c3cccc(S(C)(=O)=O)c3)c2c1 | 733 nM |
| CC(C)n1cnnc1-c1ccc2[nH]nc(-c3cccc(-c4cnn(C)c4)c3)c2c1 | 63.6 nM |
| CC(C)n1cnnc1-c1ccc2[nH]nc(-c3cccc(C(=O)Nc4cnn(C)c4)c3)c2c1 | 144 nM |
| CC(C)n1cnnc1-c1ccc2[nH]nc(-c3cccc(C(N)=O)c3)c2c1 | 74.2 nM |
| CCOC(C)n1cc(-c2cccc(-c3n[nH]c4ccc(-c5nncn5C(C)C)cc34)c2)cn1 (stereo unspecified) | 29.9 nM |
| c1cc(-c2n[nH]c3ccc(-c4nncn4C4CC4)cc23)cc(-n2cnc(C3CC3)c2)c1 | 50 nM |
| CC(C)n1cnnc1-c1ccc2[nH]nc(-c3cccc(-c4ccnn4C)c3)c2c1 | 855 nM |
| Cc1ccc(-c2n[nH]c3ccc(-c4nncn4C(C)C)cc23)cc1-n1cnc(C2CC2)c1 | 56.9 nM |
| COc1cc(-c2n[nH]c3ccc(-c4nncn4C(C)C)cc23)cc(-n2cnc(C3CC3)c2)c1 | 48.6 nM |
| CC(C)n1cnnc1-c1ccc2[nH]nc(-c3cccc(C(=O)NC4CC4)c3)c2c1 | 271 nM |
| CC(C)n1cnnc1-c1ccc2[nH]nc(-c3cccc(NC(=O)c4ccc(C(F)(F)F)cc4)c3)c2c1 | 197 nM |
| CC(C)n1cnnc1-c1ccc2[nH]nc(-c3cccc(-c4cnn(C5CCOCC5)c4)c3)c2c1 | 50.1 nM |
| CCOC(C)n1cc(-c2cncc(-c3n[nH]c4ccc(-c5nncn5C(C)C)cc34)c2)cn1 (stereo unspecified) | 277 nM |
| CC(C)n1cnnc1-c1ccc2[nH]nc(-c3ccc(N4CCOCC4)c(-n4cnc(C5CC5)c4)c3)c2c1 | 31.8 nM |
| c1cc(-c2n[nH]c3ccc(-c4nncn4C4CCC4)cc23)cc(-n2cnc(C3CC3)c2)c1 | 70 nM |
| c1cc(-c2n[nH]c3ccc(-c4nncn4C4CCCCC4)cc23)cc(-n2cnc(C3CC3)c2)c1 | 243 nM |
| CC(C)n1cnnc1-c1ccc2[nH]nc(-c3cccc(-c4cccnc4)c3)c2c1 | 283 nM |
| CC(C)n1cnnc1-c1ccc2[nH]nc(-c3cccc(-n4cnc(C5CC5)c4)c3)c2c1 | 62.2 nM |
| COCCNC(=O)c1cccc(-c2n[nH]c3ccc(-c4nncn4C(C)C)cc23)c1 | 245 nM |
| COCn1cc(-c2cccc(-c3n[nH]c4ccc(-c5nncn5C(C)C)cc34)c2)cn1 | 26.9 nM |
| c1cc(-c2n[nH]c3ccc(-c4cn[nH]c4)cc23)cc(-n2cnc(C3CC3)c2)c1 | 275 nM |
| CC(C)n1cnnc1-c1ccc2[nH]nc(-c3cc(N4CCOCC4)cc(-n4cnc(C5CC5)c4)c3)c2c1 | 75.1 nM |
| CCS(=O)(=O)Nc1cccc(-c2n[nH]c3ccc(-c4nncn4C(C)C)cc23)c1 | 19.8 nM |

target: T1, Mitogen-activated protein kinase kinase kinase 5; experiment: Inhibition of ASK1 in human HEK293 cells transfected with AP1 assessed as inhibition of AP1-induced firefly luciferase activity preincubated for 1 hr followed by PMA stimulation and measured after 6 hrs by luciferase reporter assay; type: cell-based; conditions: not given

| Compound | IC50 |
| --- | --- |
| CC(C)n1cnnc1-c1ccc2[nH]nc(-c3cccc(-n4cnc(C5CC5)n4)c3)c2c1 | 8880 nM |
| c1cc(-c2n[nH]c3ccc(-c4nncn4C4CCCC4)cc23)cc(-n2cnc(C3CC3)c2)c1 | 5500 nM |
| CC(C)n1cnnc1-c1ccc2[nH]nc(-c3cccc(-c4cnn(C)c4)c3)c2c1 | 8330 nM |
| CCOC(C)n1cc(-c2cccc(-c3n[nH]c4ccc(-c5nncn5C(C)C)cc34)c2)cn1 (stereo unspecified) | 4460 nM |
| c1cc(-c2n[nH]c3ccc(-c4nncn4C4CC4)cc23)cc(-n2cnc(C3CC3)c2)c1 | 7040 nM |
| Cc1ccc(-c2n[nH]c3ccc(-c4nncn4C(C)C)cc23)cc1-n1cnc(C2CC2)c1 | 8730 nM |
| COc1cc(-c2n[nH]c3ccc(-c4nncn4C(C)C)cc23)cc(-n2cnc(C3CC3)c2)c1 | 11300 nM |
| CC(C)n1cnnc1-c1ccc2[nH]nc(-c3cccc(-c4cnn(C5CCOCC5)c4)c3)c2c1 | 12100 nM |
| CC(C)n1cnnc1-c1ccc2[nH]nc(-c3ccc(N4CCOCC4)c(-n4cnc(C5CC5)c4)c3)c2c1 | 11600 nM |
| c1cc(-c2n[nH]c3ccc(-c4nncn4C4CCC4)cc23)cc(-n2cnc(C3CC3)c2)c1 | 7280 nM |
| COCn1cc(-c2cccc(-c3n[nH]c4ccc(-c5nncn5C(C)C)cc34)c2)cn1 | 9810 nM |

system: HT-29; experiment: Induction cell survival in TNFalpha-induced human HT-29 cells at 10 uM pretreated for 24 hrs followed by TNFalpha stimulation measured after 2 hrs by CCK8 assay; type: functional, cell-based; conditions: not given

| Compound | Activity |
| --- | --- |
| CCOC(C)n1cc(-c2cccc(-c3n[nH]c4ccc(-c5nncn5C(C)C)cc34)c2)cn1 (stereo unspecified) | Active |
| Cc1cc(F)c(C(=O)Nc2cccc(-c3nncn3C(C)C)n2)cc1-n1cnc(C2CC2)c1 [SELONSERTIB] | Active |

system: HT-29; experiment: Cytotoxicity against human HT-29 cells assessed as cell survival at 25 uM incubated for 24 hrs by CCK8 assay; type: cell-based; conditions: ht-29, 24 h

| Compound | Activity |
| --- | --- |
| CCOC(C)n1cc(-c2cccc(-c3n[nH]c4ccc(-c5nncn5C(C)C)cc34)c2)cn1 (stereo unspecified) | Non-Toxic |
| Cc1cc(F)c(C(=O)Nc2cccc(-c3nncn3C(C)C)n2)cc1-n1cnc(C2CC2)c1 [SELONSERTIB] | Non-Toxic |

system: HT-29; experiment: Antiinflammatory activity in human HT-29 cells assessed as suppression of […]-stimulated p-ASK1 expression by Western blot analysis; type: functional, cell-based; conditions: not given

| Compound | Activity |
| --- | --- |
| CCOC(C)n1cc(-c2cccc(-c3n[nH]c4ccc(-c5nncn5C(C)C)cc34)c2)cn1 (stereo unspecified) | Active |
| Cc1cc(F)c(C(=O)Nc2cccc(-c3nncn3C(C)C)n2)cc1-n1cnc(C2CC2)c1 [SELONSERTIB] | Active |

system: HT-29; experiment: Antiinflammatory activity in human HT-29 cells assessed as suppression of […]-stimulated p-P38 expression by Western blot analysis; type: functional, cell-based; conditions: not given

| Compound | Activity |
| --- | --- |
| CCOC(C)n1cc(-c2cccc(-c3n[nH]c4ccc(-c5nncn5C(C)C)cc34)c2)cn1 (stereo unspecified) | Active |
| Cc1cc(F)c(C(=O)Nc2cccc(-c3nncn3C(C)C)n2)cc1-n1cnc(C2CC2)c1 [SELONSERTIB] | Active |

system: HT-29; experiment: Antiinflammatory activity in human HT-29 cells assessed as suppression of […]-stimulated p-JNK expression by Western blot analysis; type: functional, cell-based; conditions: not given

| Compound | Activity |
| --- | --- |
| CCOC(C)n1cc(-c2cccc(-c3n[nH]c4ccc(-c5nncn5C(C)C)cc34)c2)cn1 (stereo unspecified) | Active |
| Cc1cc(F)c(C(=O)Nc2cccc(-c3nncn3C(C)C)n2)cc1-n1cnc(C2CC2)c1 [SELONSERTIB] | Active |

system: HT-29; experiment: Antiapoptotic activity against in human HT-29 cells assessed as inhibition of TNFalpha-induced upregulation of Bax expression by Western blot analysis; type: functional, cell-based; conditions: not given

| Compound | Activity |
| --- | --- |
| CCOC(C)n1cc(-c2cccc(-c3n[nH]c4ccc(-c5nncn5C(C)C)cc34)c2)cn1 (stereo unspecified) | Active |
| Cc1cc(F)c(C(=O)Nc2cccc(-c3nncn3C(C)C)n2)cc1-n1cnc(C2CC2)c1 [SELONSERTIB] | Active |

system: HT-29; experiment: Antiapoptotic activity against in human HT-29 cells assessed as inhibition of TNFalpha-induced down regulation of Bcl2 expression by Western blot analysis; type: functional, cell-based; conditions: not given

| Compound | Activity |
| --- | --- |
| CCOC(C)n1cc(-c2cccc(-c3n[nH]c4ccc(-c5nncn5C(C)C)cc34)c2)cn1 (stereo unspecified) | Active |
| Cc1cc(F)c(C(=O)Nc2cccc(-c3nncn3C(C)C)n2)cc1-n1cnc(C2CC2)c1 [SELONSERTIB] | Active |

system: HT-29; experiment: Antiapoptotic activity against in human HT-29 cells assessed as inhibition of TNFalpha-induced Bax/ Bcl2 ratio by Western blot analysis; type: functional, cell-based; conditions: not given

| Compound | Activity |
| --- | --- |
| CCOC(C)n1cc(-c2cccc(-c3n[nH]c4ccc(-c5nncn5C(C)C)cc34)c2)cn1 (stereo unspecified) | Active |
| Cc1cc(F)c(C(=O)Nc2cccc(-c3nncn3C(C)C)n2)cc1-n1cnc(C2CC2)c1 [SELONSERTIB] | Active |

system: HT-29; experiment: Antiapoptotic activity against in human HT-29 cells assessed as inhibition of TNFalpha-induced caspase 3 activity by Western blot analysis; type: functional, cell-based; conditions: not given

| Compound | Activity |
| --- | --- |
| CCOC(C)n1cc(-c2cccc(-c3n[nH]c4ccc(-c5nncn5C(C)C)cc34)c2)cn1 (stereo unspecified) | Active |
| Cc1cc(F)c(C(=O)Nc2cccc(-c3nncn3C(C)C)n2)cc1-n1cnc(C2CC2)c1 [SELONSERTIB] | Active |
